As a reminder, the EC50 is the concentration that produces a half-maximal response. The term IC50 denotes the concentration needed to halve the response being measured.

Where two headings read alike, the source gives them in different places. Where a SMILES comes first, the peptide text is derived from it. Bridges are numbered along the chain shown (N, C = ends).

Data set [1] can be described thus: Liposome leakage (carboxyfluorescein release) membrane permeabilization assay. The class given is biochemical, E. coli. To be noted: carboxyfluorescein release at 45 min, Tris buffer pH 7.4, current study.
Experimental: Each marker represents the mean leakage in Tris buffer, pH 7.4, with standard deviations from three experiments done at individual peptide concentrations, i.e., with no cumulative additions.
Liposomes were manufactured and their permeabilization was assayed as described previously.[48] Briefly, by dissolving an E. coli polar lipid extract in chloroform and evaporating the solvent under agitation, with a nitrogen gas flow, and then storing in vacuum, dry films were formed on the walls of a glass flask. Lipid films were resuspended in an aqueous solution of 100 mM 5(6)-carboxyfluorescein in 10 mM Tris (set to pH 7.4 at 37 °C). Suspensions were subjected to repeated extrusion through a 100 nm polycarbonate membrane in order to reduce multilamellar structures and polydispersity. Untrapped carboxyfluorescein was removed by gel filtration. Membrane permeability was measured by monitoring carboxyfluorescein efflux from the liposomes to the external low-concentration environment, resulting in loss of self-quenching and an increased fluorescence signal. […] The EC50 values are calculated from a sigmoidal dose–response curve with a variable slope to the leakage percentage as a function of the peptide concentration (log 10).
Data set [2] relates to Pseudomonas aeruginosa (ATCC 27853). The data set is described as follows: Microdilution MIC assay, P. aeruginosa. The class given is cell-based. To be noted: lowest concentration inhibiting 100% growth; Tris buffer, triplicate. An excerpt: (§1) Cyclotides isolated from G. repens were subjected to a microdilution assay on 96-well plates to determine minimum inhibitory concentration (MIC values), according to a method devised to minimize the activity-inhibiting presence of rich growth media.[43] For these experiments, bacterial strains of E. coli, P. aeruginosa, and S. aureus and the fungal strain of C. albicans were used. The MIC was taken as the lowest concentration of a cyclotide where the visible growth of microbes was inhibited, i.e., 100% of cell death.
(§2) The dried cyclotides were subjected to MIC determination[43] against Staphylococcus aureus (ATCC 29213), Escherichia coli (ATCC 25922), Pseudomonas aeruginosa (ATCC 27853), and Candida albicans (ATCC 90028). The cyclotides (stock concentration of 65 μM) were dissolved in Tris buffer for the assay, and a concentration gradient of the cyclotides was screened against a microbial suspension mixed in a 1:1 ratio in each well (50 μL:50 μL). Microorganisms were grown in 3% tryptic soy broth (TSB) at 37 °C overnight, after centrifuging at 2000 rpm for 6–7 min, and bacterial pellets were washed twice and dissolved with Tris buffer. The absorbance was measured at 600 nm, and the solution was diluted to a concentration of 1 × 10^6 bacteria/mL. Dilution series were prepared using a serial dilution method with cyclotides and Tris buffer. In each plate, 50 μL of microbial suspension (approximately 50 000 cells/well) was added and incubated for 5 h. After incubation, 5 μL of 20% TSB was added to each well. Each plate was incubated based on the growth cycle of the microbe for 6, 9, 10, and 12 h at 37 °C. The minimum concentration that inhibited 100% growth was recorded as the MIC value. Triplicate assays were carried out for each sample.
(In general: Broth dilution looks for growth in wells or tubes with falling amounts of substance.)

For data set [3], the system named is Staphylococcus aureus (ATCC 29213). The data set is described as follows: Microdilution MIC assay, S. aureus. The class given is cell-based. To be noted: lowest concentration inhibiting 100% growth; Tris buffer, triplicate.
From the text: as §1, §2

For data set [4], the system named is Candida albicans (ATCC 90028). The data set can be described thus: Microdilution MIC assay, C. albicans. The class given is cell-based. To be noted: lowest concentration inhibiting 100% growth; Tris buffer, triplicate.
From the text: as §1, §2

Data set [5] has as its system Escherichia coli (ATCC 25922). The data set is described as follows: Microdilution MIC assay, E. coli. The class given is cell-based. To be noted: for antimicrobial activity, MIC, Escherichia coli: lowest concentration inhibiting 100% growth, Tris buffer, triplicate.
From the text: as §1, §2

Data set [6] deals with Human Lymphoma Cell Line U-937 GTB. To be noted: read-out: cytotoxicity, IC50, lymphoma U937; FMCA, 72 h incubation.
Experimental: The cytotoxicity of the cyclotides was determined using the fluorometric microculture cytotoxicity assay, employing the U-937 a human lymphoma cell line. This assay is based on hydrolysis of the probe, fluorescein diacetate (FDA), by esterase in live cells containing an intact plasma membrane. The cyclotides were tested at a series of concentrations obtained by 2-fold dilutions.
Cytotoxicity activities of the pure cyclotides were evaluated using a fluorometric microculture cytotoxicity assay (FMCA),[57] which is based on the monitoring of fluorescence arising from fluorescein that is produced as a result of fluorescein diacetate (FDA) hydrolysis by cells with intact cell membranes. Human lymphoma cells (U937) suspended in cell-growth medium were dispensed into the microtiter plate containing pure cyclotides. Each well was seeded with 200 μL of cell suspension, containing approximately 20 000 cells, to give a total volume of 200 μL/well. […] After 40 min of incubation at 37 °C the fluorescence was measured at 485 nm excitation and 538 nm emission. The fluorescence in each well is proportional to the number of living cells, and cytotoxicity activity of a fraction is inversely proportional to fluorescence intensity. […] The IC50 values were calculated from a sigmoidal dose–response curve with a variable slope to the percentage viability as a function of the peptide concentration (log 10).
For data set [7], the system named is standard microbial strains (E. coli, P. aeruginosa, S. aureus, C. albicans). The data set can be described thus: Microdilution MIC assay, whole panel of microorganisms. To be noted: highest tested concentration 32.5 μM. The class given is cell-based.
From the text: as §1
as §2, with “In each plate, 50 μL of microbial suspension (approximately 50 000 cells/well) was added and incubated for 5 h. After incubation, 5 μL of 20% TSB was added to each well. Each plate was incubated based on the growth cycle of the microbe for 6, 9, 10, and 12 h at 37 °C. The minimum concentration that inhibited 100% growth was recorded as the MIC value. Triplicate assays were carried out for each sample.” left out

Data set [8] has as its system Escherichia coli (ATCC 25922). On the set-up: method as in PMID 28669767. To be noted: previously reported; cited from earlier work.
Data set [9] deals with Candida albicans (ATCC 90028). Details: method as in PMID 28669767. To be noted: previously reported; cited from earlier work.
The test system of data set [10] is Human Lymphoma Cell Line U-937 GTB. On the set-up: method as in PMID 21491023. To be noted: previously reported; read-out: cytotoxicity, IC50, lymphoma U937; cited from earlier work.
For data set [11] the following is noted: previously; cited from earlier work.
Data set [12] relates to Pseudomonas aeruginosa (ATCC 27853). On the set-up: method as in PMID 28669767. To be noted: previously reported; cited from earlier work.
Data set [13] relates to Staphylococcus aureus (ATCC 29213). On the set-up: method as in PMID 28669767. To be noted: previously reported; cited from earlier work.
On the set-up of data set [14]: method as in PMID 28669767. To be noted: previous liposome leakage studies; cited from earlier work.

Compound `CC[C@H](C)[C@@H]1NC(=O)[C@H](C)NC(=O)[C@H](CO)NC(=O)[C@H](CO)NC(=O)[C@H]([C@@H](C)CC)NC(=O)[C@@H]2CSSC[C@@H]3NC(=O)[C@H](C(C)C)NC(=O)[C@H](CCCCN)NC(=O)[C@H](CC(N)=O)NC(=O)[C@H](CCCCN)NC(=O)[C@@H]4CSSC[C@H](NC(=O)[C@H](CO)NC(=O)[C@H](CCC(=O)O)NC(=O)CNC(=O)[C@H](CSSC[C@H](NC(=O)CNC1=O)C(=O)N[C@@H](CO)C(=O)N4)NC(=O)[C@@H]1CCCN1C(=O)[C@H]([C@@H](C)CC)NC(=O)CNC(=O)[C@H](CC(N)=O)NC(=O)[C@H](CCCCN)NC(=O)[C@H](Cc1ccc(O)cc1)NC3=O)C(=O)N[C@@H](C(C)C)C(=O)N[C@@H](Cc1c[nH]c3ccccc13)C(=O)N[C@@H]([C@@H](C)CC)C(=O)N1CCC[C@H]1C(=O)N2` [gere 1] (cyclo(AIGCSCKNKVCYKNGIPCGESCVWIPCISS); disulfide 4-18, 6-22, 11-27) had an EC50 in data set [1] of 70 nM. Moreover, the “antimicrobial activity, MIC, Pseudomonas aeruginosa” value in data set [2] turned out to be 7.9 µM. In addition, the “antimicrobial activity, MIC, Staphylococcus aureus” value in data set [3] was more than 10 µM. In data set [4], the “antimicrobial activity, MIC, Candida albicans” value was more than 10 µM. Also, in data set [5] (gere 1 versus cyO2 MIC), the “fold more active than cyO2 against E. coli” value is given as 5 fold. Further, the “antimicrobial activity, MIC, Escherichia coli” value in data set [5] was 4.0 µM. Besides, the half-maximal inhibitory concentration (IC50) in data set [6] worked out at 2 µM.
As to `CC[C@H](C)[C@@H]1NC(=O)CNC(=O)[C@H](CC(N)=O)NC(=O)[C@H]([C@@H](C)CC)NC(=O)[C@H](Cc2ccc(O)cc2)NC(=O)[C@@H]2CSSC[C@@H]3NC(=O)CNC(=O)[C@H](Cc4ccccc4)NC(=O)[C@H](Cc4ccc(O)cc4)NC(=O)[C@H](C)NC(=O)[C@@H]4CSSC[C@H](NC(=O)[C@H](CO)NC(=O)[C@H](CSSC[C@H](NC(=O)[C@H](C)NC1=O)C(=O)NCC(=O)N[C@@H](CCC(=O)O)C(=O)N[C@@H](CO)C(=O)N4)NC(=O)CNC(=O)[C@@H]1CCCN1C(=O)[C@H]([C@@H](C)CC)NC(=O)[C@H](Cc1c[nH]c4ccccc14)NC3=O)C(=O)N[C@@H](CCCCN)C(=O)N[C@@H](CC(=O)O)C(=O)N[C@@H](CCCCN)C(=O)N[C@@H](C(C)C)C(=O)N2` [gere 2], in [2], the “antimicrobial activity, MIC, Pseudomonas aeruginosa” value is more than 10 µM. In [3], the “antimicrobial activity, MIC, Staphylococcus aureus” value was more than 10 µM. In addition, in [4], the “antimicrobial activity, MIC, Candida albicans” value was more than 10 µM. For the same compound, the “antimicrobial activity, MIC, Escherichia coli” value in [5] was more than 10 µM.
Take `CC[C@H](C)[C@@H]1NC(=O)[C@@H]2CSSC[C@@H]3NC(=O)[C@H](C(C)C)NC(=O)[C@H](CCCCN)NC(=O)[C@H](CC(=O)O)NC(=O)[C@H](CCCCN)NC(=O)[C@@H]4CSSC[C@H](NC(=O)[C@H](CO)NC(=O)[C@H](CCC(=O)O)NC(=O)CNC(=O)[C@H](CSSC[C@H](NC(=O)CNC(=O)[C@H]([C@@H](C)CC)NC(=O)[C@H](C(C)C)NC(=O)[C@H]([C@@H](C)O)NC(=O)[C@H]([C@@H](C)O)NC1=O)C(=O)N[C@@H](CO)C(=O)N4)NC(=O)[C@@H]1CCCN1C(=O)[C@H](C(C)C)NC(=O)CNC(=O)[C@H](CC(N)=O)NC(=O)[C@H]([C@@H](C)O)NC(=O)[C@H](Cc1ccc(O)cc1)NC3=O)C(=O)N[C@@H](C(C)C)C(=O)N[C@@H](Cc1ccccc1)C(=O)N[C@@H]([C@@H](C)CC)C(=O)N1CCC[C@H]1C(=O)N2` [gere 3]: in data set [2], the “antimicrobial activity, MIC, Pseudomonas aeruginosa” value is more than 10 µM. Besides, the “antimicrobial activity, MIC, Staphylococcus aureus” value in data set [3] is more than 10 µM. In addition, in data set [4], the “antimicrobial activity, MIC, Candida albicans” value is more than 10 µM. For the same compound, in data set [5], the “antimicrobial activity, MIC, Escherichia coli” value was more than 10 µM.
As to `CC[C@H](C)[C@@H]1NC(=O)[C@H](Cc2ccccc2)NC(=O)[C@H](C(C)C)NC(=O)[C@@H]2CSSC[C@@H]3NC(=O)[C@H](CO)NC(=O)[C@@H]4CSSC[C@H](NC(=O)[C@@H]5CCCN5C(=O)[C@H](C(C)C)NC(=O)CNC(=O)[C@H](CC(N)=O)NC(=O)[C@H](CC(N)=O)NC(=O)[C@H](Cc5ccc(O)cc5)NC(=O)[C@H](CSSC[C@H](NC(=O)[C@@H]5CCCN5C1=O)C(=O)N[C@@H](Cc1ccccc1)C(=O)N[C@@H]([C@@H](C)O)C(=O)N[C@@H]([C@@H](C)O)C(=O)N[C@@H](C(C)C)C(=O)N[C@@H](C(C)C)C(=O)NCC(=O)N4)NC(=O)[C@H](C(C)C)NC(=O)[C@H](CCCCN)NC(=O)[C@H](CC(=O)O)NC(=O)[C@H](CCCCN)NC3=O)C(=O)NCC(=O)N[C@@H](CCC(=O)O)C(=O)N[C@@H](CO)C(=O)N2` [gere 4], the “antimicrobial activity, MIC, Pseudomonas aeruginosa” value in [2] is more than 10 µM. In addition, the “antimicrobial activity, MIC, Staphylococcus aureus” value in data set [3] is more than 10 µM. In data set [4], the “antimicrobial activity, MIC, Candida albicans” value is more than 10 µM. Also, the “antimicrobial activity, MIC, Escherichia coli” value in data set [5] was more than 10 µM.
With `CC[C@H](C)[C@@H]1NC(=O)[C@@H]2CCCN2C(=O)[C@H](Cc2c[nH]c3ccccc23)NC(=O)[C@H](CO)NC(=O)[C@@H]2CSSC[C@@H]3NC(=O)[C@H]([C@@H](C)O)NC(=O)[C@H](CCC(=O)O)NC(=O)CNC(=O)[C@@H]4CSSC[C@H](NC(=O)CNC(=O)[C@H](CCC(N)=O)NC(=O)[C@H]([C@@H](C)O)NC(=O)[C@H](Cc5ccc(O)cc5)NC(=O)[C@H](CSSC[C@H](NC1=O)C(=O)N[C@@H](CCCCN)C(=O)N[C@@H](CCCNC(=N)N)C(=O)N[C@@H](CC(N)=O)C(=O)NCC(=O)N[C@@H](CC(C)C)C(=O)N1CCC[C@H]1C(=O)N[C@@H](C(C)C)C(=O)N4)NC(=O)[C@H]([C@@H](C)O)NC(=O)CNC(=O)[C@H](CC(C)C)NC(=O)[C@H]([C@@H](C)O)NC3=O)C(=O)N[C@@H]([C@@H](C)O)C(=O)N2` [kB7, kalata B7] (cyclo(CGETCTLGTCYTQGCTCSWPICKRNGLPV); disulfide 1-15, 5-17, 10-22), in data set [1], the concentration giving a half-maximal response (EC50) stood at 94 nM. Moreover, the “minimum inhibitory concentration against panel of microorganisms” value in [7] was not below 32.5 µM. Further, in data set [8], the “antimicrobial activity, MIC, Escherichia coli” value was more than 10 µM. Further, the “antimicrobial activity, MIC, Candida albicans” value in data set [9] is more than 10 µM. The IC50 in data set [10] was more than 10000 nM; in [6], 10.2 µM. Besides, in data set [11], the “concentration at which active in radial diffusion assays” value is listed as 2 mM. In addition, the “antimicrobial activity, MIC, Pseudomonas aeruginosa” value in [12] is 1.25 µM. Besides, the “antimicrobial activity, MIC, Staphylococcus aureus” value in data set [13] was more than 10 µM.
For “cycloviolacin O2 [cyO2, reference compound]”, the EC50 in [14] was 76 nM. In addition, in data set [8], the “antimicrobial activity, MIC, Escherichia coli” value was more than 10 µM. The “antimicrobial activity, MIC, Candida albicans” value in data set [9] was more than 10 µM. Besides, in data set [10], the IC50 was 260 to 1800 nM. For the same compound, in [12], the “antimicrobial activity, MIC, Pseudomonas aeruginosa” value is 10 µM. The “antimicrobial activity, MIC, Staphylococcus aureus” value in data set [13] was more than 10 µM.

The record behind these values is publication PMC9887600, “Screening for Cyclotides in Sri Lankan Medicinal Plants: Discovery, Characterization, and Bioactivity Screening of Cyclotides from Geophila repens” (Journal of Natural Products, 2022).
